Data on two molecules can be found in patent publication US8466202B2, “Anthracenedione compounds” (Sunten Phytotech Co., Ltd., priority 2006, dated 2013).

Where “and” joins values, the source holds several entries; their conditions need not be identical. Equal values may be shown once.

The test system of data set [1] is healthy male S.D. rats. The data set is described as follows: Feces production in rats given Rheum palmatum Linne extracts for three weeks (Example 2). Particulars: oral everyday, Rheum palmatum crude extract 500, Bisacodyl 1.75, Sennosides 3.55, STD03 180, STD05-1 12, STD05-2 24 mg/kg; for Water content: feces; for Pellet count / Wet Weight: total of the six rats in the group. It counts as in vivo, rat. The protocol: The laxative activities by Rheum palmatum Linne extracts were studied. A crude Rheum palmatum Linne extract and STD05 were obtained from SunTen Phytotech Co., Ltd. (Jhonghe City, Taiwan). Commercial available laxatives, Through® (Chung Mei Pharmaceutical Co., Ltd.; active ingredient: Sennosides 20 mg, as Sennosides A+B 12 mg, Lot. 009A 051) and Dulcolax® (Boehringer Ingelheim, Taiwan, Ltd.; active ingredient: Bisacodyl; Lot. 480-4942) were obtained from a pharmacy.
Forty-two healthy male S.D. rats (8 weeks old; National Laboratory Animal Center, Taiwan) were divided into seven groups (six in each) and tested for the laxative activity by Rheum palmatum Linne extracts. The rats in one group were not fed with any extract or drug and used as negative controls. The rats in the second and third group were given Sennosides (3.55 mg/kg) and Bisacodyl (1.75 mg/kg), respectively, and used as positive controls. The Rats in the other four groups were given Rheum palmatum Linne crude extract (500 mg/kg), filtered crude extract STD03 (180 mg/kg), and STD05 (STD05-1: 12 mg/kg and STD05-2: 24 mg/kg), respectively. All substances were administered orally everyday for three weeks.
The experiments were carried out under conditions in which temperature, humidity, and lighting were all controlled. Each rat was fed standard rat food and water ad libitum in housing that provided a 12-hour light/dark cycle. The rats were divided into seven groups according to the body weights.
The first part of the experiment studied the effect of the above-mentioned extracts on feces production. During the three-week period, any rat that appeared dying was euthanized, dissected, and studied to check for any illness or injures. Any complications or illness were analyzed by H&E stains to determine the cause of death and to allow for dosage reconsiderations for future experiments.
During this period, the body weights of the rats were weighed each day and recorded. Feces of each rat were studied three times during the period for any unusual observations. Specifically, the amounts of feces were weighed on Days 11, 15, 18, and 21. During observation, each rat was placed in a metabolic cage. Feces were collected every twenty-four hours. The number of collected feces pellets was counted, and the pellets' shapes and colors were evaluated. After weighing the moist feces, they were dried in an oven at 100° C. for twenty-four hours. The water content from the feces was calculated according to the following formula: Water content percentage=[(wet weight−dry weight)/wet weight]×100%.
Intestine motility data were expressed as mean±SD. Data were analyzed using the one-way ANOVA method. For comparison within the groups, a Post hoc Comparison was applied. In both feces production and intestine motility analyses, p<0.05 indicates significant differences. For the feces production tests, the data for each group and each time point represent the total wet weight or pellet count of the six rats in the group.

Data set [2] in a line: Enteric absorption rate (statement, no method given). To be noted: general statement.
A short description of data set [3]: Side effects compared with Rheum palmatum Linne herb extracts (statement, no method given). To be noted: general statement.
In data set [4] the test system is healthy male S.D. rats. Nature of the data set: Feces production in rats over the 10-day period (Example 3). Format: in vivo, rat. To be noted: for increase of the feces amount (wet weight): vs control of the same group; for Pellet count / Water content / Wet Weight: Group III, Physcion 4 mg/kg, CP 8 mg/kg. The protocol: During this period, the body weights of the rats were weighed each day and recorded. Feces of each rat were studied three times during the period for any unusual observations. Specifically, the amounts of feces were weighed on Days 11, 15, 18, and 21. During observation, each rat was placed in a metabolic cage. Feces were collected every twenty-four hours. The number of collected feces pellets was counted, and the pellets' shapes and colors were evaluated. After weighing the moist feces, they were dried in an oven at 100° C. for twenty-four hours. The water content from the feces was calculated according to the following formula: Water content percentage=[(wet weight−dry weight)/wet weight]×100%. (I) The results are summarized in Table 2 below: The aforementioned STD05 and compounds were studied for the laxative activity. Healthy male S.D. rats (BioLASCO Taiwan Co. Ltd.) were divided into three groups (i.e., Groups 1-3) in this study. In Group I, 6 rats, as negative control, were given no treatment; 6 rats, as positive control, were given 3.35 mg/kg/day Sennosides (Through®, Chung Mei Pharmaceutical Co., Ltd; Active ingredient: Sennosides 20 mg, as sennoside A+B 12 mg, Lot. 012F 006); 6 rats were treated STD05 (8 mg/kg/day); 6 rats were treated with an extract fraction containing aloe-emodin, rhein, and emodin (“ARE”, 8 mg/kg/day); 6 rats were treated with Aloe-emodin (4 mg/kg/day); and 6 rats were treated with Rhein (4 mg/kg/day). In Group II, 6 rats, as negative control, were given no treatment; 6 rats, as positive control, were given 3.35 mg/kg/day Sennosides; 6 rats were treated STD05 (24 mg/kg/day); 6 rats were treated with an extract fraction containing ARE (24 mg/kg/day); 6 rats were treated with Chrysophanol (4 mg/kg/day); and 6 rats were treated with Emodin (4 mg/kg/day). In Group III, 6 rats, as negative control, were given no treatment; 6 rats were treated with Physcoin (4 mg/kg/day); and 6 rats were treated with a mixture of chrysophanol and physcion (8 mg/kg/day, “CP”). The experiments were carried out under controlled temperature, humidity, and lighting. Each rat was fed standard rat food and water ad libitum in housing that provided a 12-hour light/dark cycle. For statistical comparison, all of the rats were divided into six sets according to the body weights. The first part of the experiment studied the effect of the test substances on feces production. During the 10-day period, the body weights of the rats were weighed each day and recorded. The rat's feces was also studied three times in the manner described above during the 10-day period for any unusual observations. During the 10-day period, any rat that appeared dying was euthanized, dissected, and examined for any illness or injury. Any complications or illness were analyzed by H&E stains to determine the cause of death and to allow for dosage reconsiderations for future experiments. Summarized in Table 4 below are the effects of the compounds, mixtures, or extracts on the rat body weights. During the period, feces produced by the rats were studied days 1, 5, and 10 in the same manner described above. […] In the 10-day period, the rats administered with STD05 produced more feces (wet weight) that the rats in the control group by about 32%. In addition, the pellet counts for the rats administered with STD05 were greater than those for the control rats by about 20%. Furthermore, STD05 increased the water content in feces by about 18%. The same experiments were conducted on rats administered with physcion, aloe-emodin, chrysophanol, rhein, emodin, CP, and ARE.

Data set [5] is described as follows: Body weight of rats over the 10-day period (Example 3). It counts as in vivo, rat. Also noted: Body weight Difference: unit not given here. To be noted: Group III, Physcion 4 mg/kg, CP 8 mg/kg. The protocol:
The aforementioned STD05 and compounds were studied for the laxative activity. Healthy male S.D. rats (BioLASCO Taiwan Co. Ltd.) were divided into three groups (i.e., Groups 1-3) in this study. In Group I, 6 rats, as negative control, were given no treatment; 6 rats, as positive control, were given 3.35 mg/kg/day Sennosides (Through®, Chung Mei Pharmaceutical Co., Ltd; Active ingredient: Sennosides 20 mg, as sennoside A+B 12 mg, Lot. 012F 006); 6 rats were treated STD05 (8 mg/kg/day); 6 rats were treated with an extract fraction containing aloe-emodin, rhein, and emodin (“ARE”, 8 mg/kg/day); 6 rats were treated with Aloe-emodin (4 mg/kg/day); and 6 rats were treated with Rhein (4 mg/kg/day). In Group II, 6 rats, as negative control, were given no treatment; 6 rats, as positive control, were given 3.35 mg/kg/day Sennosides; 6 rats were treated STD05 (24 mg/kg/day); 6 rats were treated with an extract fraction containing ARE (24 mg/kg/day); 6 rats were treated with Chrysophanol (4 mg/kg/day); and 6 rats were treated with Emodin (4 mg/kg/day). In Group III, 6 rats, as negative control, were given no treatment; 6 rats were treated with Physcoin (4 mg/kg/day); and 6 rats were treated with a mixture of chrysophanol and physcion (8 mg/kg/day, “CP”). The experiments were carried out under controlled temperature, humidity, and lighting. Each rat was fed standard rat food and water ad libitum in housing that provided a 12-hour light/dark cycle. For statistical comparison, all of the rats were divided into six sets according to the body weights. The first part of the experiment studied the effect of the test substances on feces production. During the 10-day period, the body weights of the rats were weighed each day and recorded. The rat's feces was also studied three times in the manner described above during the 10-day period for any unusual observations. During the 10-day period, any rat that appeared dying was euthanized, dissected, and examined for any illness or injury. Any complications or illness were analyzed by H&E stains to determine the cause of death and to allow for dosage reconsiderations for future experiments. Summarized in Table 4 below are the effects of the compounds, mixtures, or extracts on the rat body weights.

With `CC(=O)Oc1ccc(C(c2ccc(OC(C)=O)cc2)c2ccccn2)cc1` [Bisacodyl], the Water content is reported as 64.45% in the data set on healthy male S.D. rats [1] (Day 11), 68.34% in the data set on healthy male S.D. rats [1] (Day 15), 66.65% with healthy male S.D. rats [1] (Day 18) and 68.02% in the data set on healthy male S.D. rats [1] (Day 21). Also, the Pellet count in the data set on healthy male S.D. rats [1] (Day 11) turned out to be 116; with healthy male S.D. rats [1] (Day 15) it was 110; in the data set with healthy male S.D. rats [1] (Day 18) it was 81; in the data set with healthy male S.D. rats [1] (Day 21), 108. The “Wet Weight” value in the data set with healthy male S.D. rats [1] (Day 11) is 33.84 g; with healthy male S.D. rats [1] (Day 15), 41.64 g; in the data set on healthy male S.D. rats [1] (Day 18), 30.14 g; with healthy male S.D. rats [1] (Day 21), 40.13 g.
For the molecule `COc1cc(O)c2c(c1)C(=O)c1cc(C)cc(O)c1C2=O` [Physcion, physcion], in data set [2], the enteric absorption rate entry is “very low”. For the same molecule, the “side effects often seen in herb extracts (cramping, bloating, gas, and diarrhea)” value in data set [3] is “do not have the side effects”. In addition, in the data set on healthy male S.D. rats [4] (Day 1), the “increase of the feces amount (wet weight)” value stood at 93%, the Pellet count was 134, the Water content stood at 55.73% and the “Wet Weight” value worked out at 35.38 g. Besides, in the data set on healthy male S.D. rats [4] (Day 5), the “increase of the feces amount (wet weight)” value was found to be 57%, the Pellet count is recorded as 128, the Water content worked out at 53.80% and the “Wet Weight” value was 35.17 g. In the data set with healthy male S.D. rats [4] (Day 10), the “increase of the feces amount (wet weight)” value came to 32%, the Pellet count came to 121, the Water content was found to be 47.66% and the “Wet Weight” value came to 29.43 g. The “increase of the feces amount (wet weight), average” value in the data set with healthy male S.D. rats [4] (average of Days 1, 5 and 10) was 61%. Moreover, the Body weight Difference, Mean in data set [5] (group mean, Day 10 minus Day 1) was 30 g. Also, the Body weight End Day 10, Mean in data set [5] (group mean) was 425 g. Besides, the “Body weight Difference” value in data set [5] (individual rats, Day 10 minus Day 1) was 25 and 30 (3×) and 45 and 20. The “Body weight End Day 10” value in data set [5] (individual rats, in g (unit assumed)) is 410 and 430 and 450 and 385 and 415 and 460.
